16 molecules from paper PMC6470675, “Design and Synthesis of New Quinoxaline Derivatives as Anticancer Agents and Apoptotic Inducers” (Molecules, 2019) can be followed below.

For data set [1], the target named is T1, VEGFR-2 (Homo sapiens, UniProt P35968).
T1 construct: purchased Bio Science Corporation (BPS), San Diego, CA, USA
The data set is described as follows: In vitro VEGFR-2 inhibition assay (Kinase-Glo Plus luminescence). The data set is classed as biochemical. As to conditions: read-out: % of VEGFR-2 Inhibition. The protocol:
In an attempt to investigate the possible mechanism of action of the synthesized compounds based on structural similarity with sorafenib, all of them were tested for VEGFR-2 inhibitory activity at Bio Science Corporation (BPS, San Diego, CA, USA). The assay was performed using the Kinase-Glo Plus luminescence kinase assay kit (Promega, San Diego, CA, USA). It measures kinase activity by quantitating the amount of ATP remaining in solution following a kinase reaction. […].
The in-vitro enzyme inhibition determination for the synthesized compounds was carried out at Bio Science Corporation (BPS)-San Diego, CA, USA. The assay was performed using Kinase-Glo Plus luminescence kinase assay kit (Promega), where the kinase activity was measured by quantitating the amount of ATP remaining in solution following a kinase reaction. The luminescent signal from the assay is correlated with the amount of ATP present and is inversely correlated with the amount of kinase activity. Our compounds were diluted with 10% DMSO and 5 µL of the dilution was added to a 50 µL reaction so that the final concentration of DMSO is 1% in all of reactions. All of the enzymatic reactions were conducted at 30 °C for 40 min. The 50 µL reaction mixture contains 40 mM Tris, pH 7.4, 10 mM MgCl2, 0.1 mg/mL BSA, 1 mM DTT, 10 µM ATP, Kinase substrate and the enzyme. After the enzymatic reaction, 50 µL of Kinase-Glo Plus Luminescence kinase assay solution (Promega San Diego, CA, USA) was added to each reaction and incubate the plate for 5 min at room temperature. Luminescence signal was measured using a BioTek Synergy 2 microplate reader.
Kinase activity assays were performed in duplicate at each concentration. The luminescence data were analyzed using the computer software, Graphpad Prism. The difference between luminescence intensities in the absence of Kinase (Lut) and in the presence of Kinase (Luc) was defined as 100% activity (Lut − Luc). Using luminescence signal (Lu) in the presence of the compound, % activity was calculated as:% activity = {(Lut − Lu)(Lut − Luc)} × 100% where Lu = the luminescence intensity in the presence of the compound.
A general note: In Kinase-Glo more light means more ATP remaining.

In data set [2] the test system is Hep G2 human hepatocellular carcinoma cell line. Description: In vitro cell proliferation (MTT) assay, Hep G2. The data set is classed as cell-based. As to conditions: for IC50: Homo sapiens, HepG2, MTT, 72 h exposure. The protocol: (§1) The targeted compounds were tested for their in-vitro anti-cancer activity against three tumor cell lines (HCT116, Hep G2 and MCF-7). Doxorubicin was included in the experiments as a reference cytotoxic compound. Exponentially growing cells from different cancer cell lines were trypsinized, counted and seeded at the appropriate densities into 96-well microtiter plates. Cells then were incubated in a humidified atmosphere at 37 °C for 24 h. Then, cells were exposed to different concentrations of compounds for 72 h. Then the viability of treated cells was determined using MTT technique (described latter).
(§2) Three cancer cell lines including human colon carcinoma (HCT116), human breast adenocarcinoma (MCF-7) and human hepatocellular carcinoma (Hep G2), were purchased from American Type Cell Culture Collection (ATCC, Manassas, VA, USA) and grown on the appropriate growth medium Dulbecco’s modified Eagle’s medium (DMEM) or Roswell Park Memorial Institute medium (RPMI 1640) supplemented with […] of streptomycin, 100 units/mL of penicillin and 10% of heat-inactivated fetal bovine serum in a humidified, 5% (v/v) CO2 atmosphere at 37 °C [34]. Cytotoxicity assay by 3-[4,5-dimethylthiazole-2-yl]-2,5-diphenyltetrazolium bromide (MTT).
(§3) Exponentially growing cells from different cancer cell lines were trypsinized, counted and seeded at the appropriate densities (2000–1000 cells/0.33 cm^2 well) into 96-well microtiter plates. Cells then were incubated in a humidified atmosphere at 37 °C for 24 h. Then, cells were exposed to different concentrations of compounds (0.1, 10, 100, 1000 µM) for 72 h. Then the viability of treated cells was determined using MTT technique as follow. Media were removed; cells were incubated with 200 μL of 5% MTT solution/well (Sigma Aldrich, Darmstadt, Germany) and were allowed to metabolize the dye into a colored-insoluble formazan crystal for 2 h. The remaining MTT solution were discarded from the wells and the formazan crystals were dissolved in 200 µl/well acidified isopropanol for 30 min, covered with aluminum foil and with continuous shaking using a MaxQ 2000 plate shaker (Thermo Fisher Scientific Inc, Waltham, MA, USA) at room temperature. Absorbance were measured at 570 nm using a Stat Fax^R 4200 plate reader (Awareness Technology, Inc., Awareness Technology, FL, USA). The cell viability was expressed as percentage of control and the concentration that induces 50% of maximum inhibition of cell proliferation (IC50) were determined using Graph Pad Prism version 5 software (Graph Pad Software Inc, San Diego, CA, USA) (1,2).

Data set [3] has as its system MCF-7 human breast adenocarcinoma cell line. Description: In vitro cell proliferation (MTT) assay, MCF-7. The data set is classed as cell-based. As to conditions: for IC50: Homo sapiens, MCF7, MTT, 72 h exposure. The procedure: as §1, §2, §3
The subject of data set [4] is HCT116 human colon carcinoma cell line. Description: In vitro cell proliferation (MTT) assay, HCT116. The data set is classed as cell-based. The note with it: for IC50: Homo sapiens, HCT-116, MTT, 72 h exposure. The procedure:
as §1, §2, §3

Like-named read-outs stand apart in the source and are kept apart here.

T1 sequence (P35968 20-1356): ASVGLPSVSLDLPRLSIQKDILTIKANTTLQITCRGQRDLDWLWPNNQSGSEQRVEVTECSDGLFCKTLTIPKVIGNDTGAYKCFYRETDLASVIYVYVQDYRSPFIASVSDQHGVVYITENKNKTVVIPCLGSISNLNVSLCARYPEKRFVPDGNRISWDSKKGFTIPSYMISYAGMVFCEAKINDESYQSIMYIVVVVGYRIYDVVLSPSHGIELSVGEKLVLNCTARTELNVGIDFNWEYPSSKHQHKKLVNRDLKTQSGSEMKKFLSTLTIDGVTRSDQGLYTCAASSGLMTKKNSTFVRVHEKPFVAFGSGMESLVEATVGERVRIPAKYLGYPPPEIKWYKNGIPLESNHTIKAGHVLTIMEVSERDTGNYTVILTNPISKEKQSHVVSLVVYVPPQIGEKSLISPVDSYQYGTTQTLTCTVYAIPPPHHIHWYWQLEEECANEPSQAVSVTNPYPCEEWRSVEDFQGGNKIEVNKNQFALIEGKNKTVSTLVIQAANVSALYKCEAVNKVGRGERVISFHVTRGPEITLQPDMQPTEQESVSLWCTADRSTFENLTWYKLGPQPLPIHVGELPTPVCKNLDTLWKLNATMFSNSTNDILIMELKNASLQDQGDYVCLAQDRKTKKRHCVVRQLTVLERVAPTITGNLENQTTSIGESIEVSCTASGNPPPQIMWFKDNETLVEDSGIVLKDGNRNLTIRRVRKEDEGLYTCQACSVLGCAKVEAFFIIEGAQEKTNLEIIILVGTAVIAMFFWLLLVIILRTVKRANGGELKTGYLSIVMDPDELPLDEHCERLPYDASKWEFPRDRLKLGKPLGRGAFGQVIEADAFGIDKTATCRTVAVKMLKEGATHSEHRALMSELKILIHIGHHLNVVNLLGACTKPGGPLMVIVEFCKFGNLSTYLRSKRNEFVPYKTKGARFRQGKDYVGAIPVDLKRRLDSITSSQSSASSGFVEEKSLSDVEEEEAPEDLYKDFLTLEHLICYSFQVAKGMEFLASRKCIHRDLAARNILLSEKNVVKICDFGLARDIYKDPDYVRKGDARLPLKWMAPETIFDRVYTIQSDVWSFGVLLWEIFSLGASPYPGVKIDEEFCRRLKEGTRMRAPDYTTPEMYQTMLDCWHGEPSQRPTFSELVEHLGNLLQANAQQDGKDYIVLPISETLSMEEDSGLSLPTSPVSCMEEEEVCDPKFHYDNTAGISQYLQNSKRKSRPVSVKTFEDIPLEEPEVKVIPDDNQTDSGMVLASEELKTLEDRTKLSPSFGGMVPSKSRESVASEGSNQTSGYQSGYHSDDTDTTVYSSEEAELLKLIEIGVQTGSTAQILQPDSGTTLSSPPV

As to `S=C(Nc1ccccc1)Nc1ccc(Nc2nc3ccccc3nc2Cl)cc1` [XVIIa, 1-(4-((3-Chloroquinoxalin-2-yl)amino)phenyl)-3-phenylthiourea], the melting point (commonly the temperature, or range, at which the solid turns liquid) was in the range of 190 to 191 °C. Further, in data set [1] (single concentration of 10 µM), the inhibition (as a rule, the percentage by which the read-out fell short of the control) at 10 µM amounted to 10%. Moreover, the midpoint of inhibition in data set [2], the IC50, lay at 575 µM. It took 170 µM to reach half-maximal inhibition in data set [3] (IC50). Besides, in data set [4], 309 µM corresponded to half-maximal inhibition (IC50).
As to `CN[C@@H]1C[C@H]2O[C@@](C)([C@@H]1OC)n1c3ccccc3c3c4c(c5c6ccccc6n2c5c31)C(=O)NC4` [Staurosporine, staurosporine, reference compound], the inhibition at 10 µM in data set [1] turned out to be 100%.
On to `O=C(Nc1ccc(Nc2nc3ccccc3nc2Cl)cc1)c1ccccc1` [XVIa, N-(4-((3-Chloroquinoxalin-2-yl)amino)phenyl)benzamide], for which the melting point was in the range of 270 to 273 °C. Besides, in data set [1] (single concentration of 10 µM), the inhibition at 10 µM was found to be 8%. In addition, in data set [2], the midpoint of inhibition, the IC50, lay at 513 µM. Further, the half-maximal inhibitory concentration (IC50) (as a rule, the concentration at which inhibition is half-maximal) in data set [3] amounted to 324 µM. The IC50 in data set [4] stood at 347 µM.
The molecule `Cc1nc2ccccc2nc1Nc1ccc(NC(=O)c2ccc(Cl)cc2)cc1` [Compound VIIb, 4-Chloro-N-(4-((3-methylquinoxalin-2-yl)amino)phenyl)benzamide] yielded a melting point of 234 to 235 °C. In data set [1] (single concentration of 10 µM), the inhibition at 10 µM came to 4%. Moreover, half-maximal inhibition in data set [2] (IC50) was put at 115 µM. Also, the half-inhibitory concentration (IC50) in data set [3] amounted to 138 µM. Besides, in data set [4], the “anti-cancer activity against HCT116 cell line (in words)” value is “weak activity” and the IC50 came out at 27.5 µM.
In turn, `O=C(Nc1ccccc1)Nc1ccc(Nc2nc3ccccc3nc2Cl)cc1` [XVIIb, 1-(4-((3-Chloroquinoxalin-2-yl)amino)phenyl)-3-phenylurea] displayed a melting point of 280 to 281 °C. Further, the inhibition at 10 µM in data set [1] (single concentration of 10 µM) stood at 10%. The molecule also returned an IC50 in data set [2] of 513 µM. Further, in data set [3], the IC50 stood at 148 µM. The same molecule showed an IC50 in data set [4] of 170 µM.
With `Cc1cccc(NC(=O)Nc2ccc(Nc3nc4ccccc4nc3Cl)cc2)c1` [XVIId, 1-(4-((3-Chloroquinoxalin-2-yl)amino)phenyl)-3-(m-tolyl) urea], the melting point was over 300 °C. Also, the inhibition at 10 µM in data set [1] (single concentration of 10 µM) came to 5%. This molecule came in with an IC50 in data set [2] of 513 µM. Besides, in data set [3], the IC50 was determined as 64.5 µM. The IC50 in data set [4] came to 190 µM.
Molecule `Cc1nc2ccccc2nc1Nc1ccc(NC(=O)Nc2ccccc2)cc1` [Compound VIIIb, 1-(4-((3-Methylquinoxalin-2-yl)amino)phenyl)-3-phenylurea] displayed a melting point of over 300 °C. For the same molecule, in data set [1] (single concentration of 10 µM), the inhibition at 10 µM stood at 4%. In data set [2], the “anti-cancer activity against Hep G2 cell line (in words)” value is reported as “no significant inhibitory activity” and the IC50 is 98 µM. Further, in data set [2] (relative to VIIIa), the “loss of activity towards Hep G2 on conversion of thiourea VIIIa into the urea” value was 10 fold. Also, in data set [3], the “anti-cancer activity against MCF-7 cell line (in words)” value was “moderate activity” and the midpoint of inhibition, the IC50, lay at 13.5 µM. For the same molecule, in data set [4], the “anti-cancer activity against HCT116 cell line (in words)” value was “weak activity” and the IC50 stood at 38 µM.
Take `Cc1ccc(S(=O)(=O)Nc2ccc(Nc3nc4ccccc4nc3C)cc2)cc1` [IXa, 4-Methyl-N-(4-((3-methylquinoxalin-2-yl)amino)phenyl) benzenesulphonamide]: the melting point was in the range of 198 to 199 °C. Also, the inhibition at 10 µM in data set [1] (single concentration of 10 µM) worked out at 3%. In data set [2], the half-inhibitory concentration (IC50) came out at 22.9 µM. The molecule also gave an IC50 in data set [3] of 22.9 µM. Further, the IC50 in data set [4] was 21.9 µM.
As to `O=C(Nc1ccc(Cl)cc1)Nc1ccc(Nc2nc3ccccc3nc2Cl)cc1` [XVIIc, 1-(4-Chlorophenyl)-3-(4-((3-chloroquinoxalin-2-yl)amino)phenyl)urea], the melting point was over 300 °C. In addition, in data set [1] (single concentration of 10 µM), the inhibition at 10 µM came to 6%. It took 616 µM to reach half-maximal inhibition in data set [2] (IC50). This molecule also gave an IC50 in data set [3] of 692 µM. Moreover, 257 µM corresponded to half-maximal inhibition in data set [4] (IC50).
On to `Cc1nc2ccccc2nc1Nc1ccc(NS(=O)(=O)c2ccc([N+](=O)[O-])cc2)cc1` [IXb, N-(4-((3-Methylquinoxalin-2-yl)amino)phenyl)-4-nitrobenzenesulfonamide], for which the melting point was in the range of 180 to 182 °C. The inhibition at 10 µM in data set [1] (single concentration of 10 µM) is 3%. In addition, half-maximal inhibition in data set [2] (IC50) required 24.5 µM. For the same molecule, the 50% inhibitory concentration (IC50) in data set [3] stood at 10.2 µM. This molecule displayed a half-maximal inhibitory concentration (IC50) in data set [4] of 12 µM.
As to `O=[N+]([O-])c1ccc(S(=O)(=O)Nc2ccc(Nc3nc4ccccc4nc3Cl)cc2)cc1` [XVIIIb, N-(4-((3-Chloroquinoxalin-2-yl)amino)phenyl)-4-nitrobenzenesulfonamide], the melting point was over 300 °C. Further, in data set [1] (single concentration of 10 µM), the inhibition at 10 µM was 9%. This molecule came in with an IC50 in data set [2] of over 1000 µM. This molecule displayed an IC50 in data set [3] of 55 µM. Besides, in data set [4], the 50% inhibitory concentration (IC50) is over 1000 µM.
For `COc1ccc(C(=O)Nc2ccc(Nc3nc4ccccc4nc3Cl)cc2)cc1` [XVIc, N-(4-((3-Chloroquinoxalin-2-yl)amino)phenyl)-4-methoxybenzamide], the melting point was 235 to 236 °C. For the same molecule, the inhibition at 10 µM in data set [1] (single concentration of 10 µM) is 4%. Also, in data set [2], the half-maximal inhibitory concentration (IC50) is over 1000 µM. In data set [3], the IC50 was over 1000 µM. The IC50 in data set [4] is over 1000 µM.
`O=C(Nc1ccc(Nc2nc3ccccc3nc2Cl)cc1)c1ccc(Cl)cc1` [XVIb, 4-Chloro-N-(4-((3-chloroquinoxalin-2-yl)amino)phenyl) benzamide] gave a melting point of 233 to 235 °C. For the same molecule, the inhibition at 10 µM in data set [1] (single concentration of 10 µM) is 4%. Further, the 50% inhibitory concentration (IC50) in data set [2] was over 1000 µM. Also, the IC50 in data set [3] was over 1000 µM. For the same molecule, the IC50 in data set [4] is over 1000 µM.
Take `Cc1cccc(NC(=O)Nc2ccc(Nc3nc4ccccc4nc3C)cc2)c1` [Compound VIIId, 1-(4-((3-Methylquinoxalin-2-yl)amino)phenyl)-3-(m-tolyl)urea]: the melting point is 280 to 281 °C. Further, in data set [1] (single concentration of 10 µM), the inhibition at 10 µM amounted to 5%. In data set [2], the “anti-cancer activity against Hep G2 cell line (in words)” value is reported as “weak activity” and half-maximal inhibition (IC50) was put at 36 µM. In data set [3], the “anti-cancer activity against MCF-7 cell line (in words)” value is listed as “weak activity” and inhibition was half-maximal at 30 µM (IC50). Moreover, in data set [4], the “anti-cancer activity against HCT116 cell line (in words)” value is “moderate anti-cancer activity” and 11 µM corresponded to half-maximal inhibition (IC50).
Consider `COc1cccc2c1C(=O)c1c(O)c3c(c(O)c1C2=O)C[C@@](O)(C(=O)CO)C[C@@H]3O[C@H]1C[C@H](N)[C@H](O)[C@H](C)O1` [Doxorubicin, reference compound], for which the IC50 amounted to 1.2 µM in data set [2], 0.9 µM in data set [3] and 0.62 µM in data set [4].
In the case of `Cc1ccc(C(=O)Nc2ccc(Nc3nc4ccccc4nc3Cl)cc2)cc1` [XVId, N-(4-((3-Chloroquinoxalin-2-yl)amino)phenyl)-4-methylbenzamide], the melting point lay in the range of 245 to 246 °C. For the same molecule, in data set [1] (single concentration of 10 µM), the inhibition at 10 µM stood at 3%.
